In patent US8618095B2 (Rigel Pharmaceuticals, Inc., priority 2010, dated 2013):
Where a name gives a salt, the structure may show the parent alone.

system: Human mast cells (CHMC); test: LD Tryptase release assay in CHMC (mast cell activation induced by FcγR cross-linking); assay type: cell-based; details: Homo sapiens, Mast cell, anti-IgG stimulation, activity of tryptase released upon degranulation
How it was run: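 Mast cells derived from CD38-negative progenitors were preincubated 1 h at 37 °C with compound in HEPES-buffered saline (pH 7.4, 0.1% BSA, compound diluted in buffer with 2% MeOH/1% DMSO). Cells were then stimulated 60 min with anti-human IgG (final 1 μg/mL). Released tryptase was measured on Z-Ala-Lys-Arg-AMC (30 min, room temperature, 355/460 nm) to give the IC50.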

Compound	IC50
COc1cc(Nc2ncc(F)c(Nc3ccc4c(n3)NC(=O)C(C)(C)O4)n2)ccc1C1CCOCC1 [Compound 48, N4-(2,2-dimethyl-3,4-dihydro-3-oxo-2H-pyrido[3,2-b][1,4]oxazin-6-yl)-5-fluoro-N2-[-3-methoxy-4-tetrahydropyranophenyl]-2,4-pyrimidinediamine]	100 to 500 nM
CC1(C)Oc2ccc(Nc3nc(Nc4ccc(N5CCO[C@H](CCO)C5)cc4)ncc3F)nc2NC1=O (stereo in doubt) [Compound 126, N4-(2,2-dimethyl-3,4-dihydro-3-oxo-2H-pyrido[3,2-b][1,4]oxazin-6-yl)-5-fluoro-N2-[4-((2-hydroxyethyl)morpholino)phenyl]-2,4-pyrimidinediamine]	100 to 500 nM
O=C1COc2ccc(Nc3nc(Nc4ccc(N5CC[C@H](O)C5)nc4)ncc3F)nc2N1 [Compound 63, N4-(3,4-dihydro-3-oxo-2H-pyrido[3,2-b][1,4]oxazin-6-yl)-5-fluoro-N2-[6-((3S)-3-hydroxypyrrolidin-1-yl)pyridin-3-yl]-2,4-pyrimidinediamine]	100 to 500 nM
CC1(C)Oc2ccc(Nc3nc(Nc4ccc(N5CCOC5=O)cc4)ncc3F)nc2NC1=O [Compound 91, N4-(2,2-dimethyl-3,4-dihydro-3-oxo-2H-pyrido[3,2-b][1,4]oxazin-6-yl)-5-fluoro-N2-[4-(2-oxooxazolidin-3-yl)phenyl]-2,4-pyrimidinediamine]	< 100 nM
O=C1COc2ccc(Nc3nc(Nc4ccc(N5CCCOCC5)cc4)ncc3F)nc2N1 [Compound 44, N4-(3,4-dihydro-3-oxo-2H-pyrido[3,2-b][1,4]oxazin-6-yl)-5-fluoro-N2-[4-homomorpholinophenyl]-2,4-pyrimidinediamine]	100 to 500 nM
CC1(C)Oc2ccc(Nc3nc(Nc4ccc(N5CCC6(CCOC6)CC5)cc4)ncc3F)nc2NC1=O [Compound 157, N4-(2,2-dimethyl-3,4-dihydro-3-oxo-2H-pyrido[3,2-b][1,4]oxazin-6-yl)-5-fluoro-N2-[4-(2-oxa-8-azaspiro[4.5]decan-8-yl)phenyl]-2,4-pyrimidinediamine]	100 to 500 nM
COCCN(C)c1ccc(Nc2ncc(F)c(Nc3ccc4c(n3)NC(=O)C(C)(C)O4)n2)cn1 [Compound 99]	100 to 500 nM
CC1(C)Oc2ccc(Nc3nc(Nc4ccc(N5CCOCC5CO)c(F)c4)ncc3F)nc2NC1=O (stereo not shown) [Compound 89, N4-(2,2-dimethyl-3,4-dihydro-3-oxo-2H-pyrido[3,2-b][1,4]oxazin-6-yl)-5-fluoro-N2-[3-fluoro-4-(3-(hydroxymethyl)morpholino)phenyl]-2,4-pyrimidinediamine]	100 to 500 nM
CCN(CC)C1CCN(c2ccc(Nc3ncc(F)c(Nc4ccc5c(n4)NC(=O)C(C)(C)O5)n3)cc2)CC1 [Compound 88, N4-(2,2-dimethyl-3,4-dihydro-3-oxo-2H-pyrido[3,2-b][1,4]oxazin-6-yl)-5-fluoro-N2-[4-(4-(diethylamino)piperidin-1-yl)phenyl]-2,4-pyrimidinediamine]	100 to 500 nM
COCCN(C)c1ccc(Nc2ncc(F)c(Nc3ccc4c(n3)NC(=O)CO4)n2)cn1 [Compound 98]	500 to 1000 nM
C[C@@H]1CN(c2ccc(Nc3ncc(F)c(Nc4ccc5c(n4)NC(=O)C(C)(C)O5)n3)cn2)CCO1 [Compound 7, N4-(2,2-dimethyl-3,4-dihydro-3-oxo-2H-pyrido[3,2-b][1,4]oxazin-6-yl)-5-fluoro-N2-1-2,4-pyrimidinediamine]	100 to 500 nM
CC1(C)Oc2ccc(Nc3nc(Nc4ccc(N5CCCOCC5)cc4)ncc3F)nc2NC1=O [Compound 43, N4-(2,2-dimethyl-3,4-dihydro-3-oxo-2H-pyrido[3,2-b][1,4]oxazin-6-yl)-5-fluoro-N2-[4-homomorpholinophenyl]-2,4-pyrimidinediamine]	100 to 500 nM
CC1(C)Oc2ccc(Nc3nc(Nc4ccc(N5CCOCC5=O)cc4)ncc3F)nc2NC1=O [Compound 40, N4-(2,2-dimethyl-3,4-dihydro-3-oxo-2H-pyrido[3,2-b][1,4]oxazin-6-yl)-5-fluoro-N2-[4-(morpholin-2-one)phenyl]-2,4-pyrimidinediamine]	100 to 500 nM
CC(C)[C@H]1COC(=O)N1c1ccc(Nc2ncc(F)c(Nc3ccc4c(n3)NC(=O)C(C)(C)O4)n2)cn1 [Compound 74, N4-(2,2-dimethyl-3,4-dihydro-3-oxo-2H-pyrido[3,2-b][1,4]oxazin-6-yl)-5-fluoro-N2-[6-((4S)-4-isopropyl-2-oxooxazolidin-3-yl)pyridin-3-yl]-2,4-pyrimidinediamine]	1000 to 100000 nM
CC1(C)Oc2ccc(Nc3nc(Nc4ccc(C5CCOCC5)nc4)ncc3F)nc2NC1=O [Compound 22, N4-(2,2-dimethyl-3,4-dihydro-3-oxo-2H-pyrido[3,2-b][1,4]oxazin-6-yl)-5-fluoro-N2-[6-tetrahydropyranopyridin-3-yl]-2,4-pyrimidinediamine]	100 to 500 nM
CC1(C)Oc2ccc(Nc3nc(Nc4ccc(N5CCOCC5)cc4)ncc3F)nc2NC1=O [Compound 1, N4-(2,2-dimethyl-3,4-dihydro-3-oxo-2H-pyrido[3,2-b][1,4]oxazin-6-yl)-5-fluoro-N2-(4-morpholinophenyl)-2,4-pyrimidinediamine]	< 100 nM
O=C1COc2ccc(Nc3nc(Nc4cnc(N5CCOCC5)c(F)c4)ncc3F)nc2N1 [Compound 16, N4-(3,4-dihydro-3-oxo-2H-pyrido[3,2-b][1,4]oxazin-6-yl)-5-fluoro-N2-[5-fluoro-6-morpholinopyridin-3-yl]-2,4-pyrimidinediamine]	100 to 500 nM
[2H]C1([2H])OC([2H])([2H])C([2H])([2H])N(c2ccc(Nc3ncc(F)c(Nc4ccc5c(n4)NC(=O)C(C)(C)O5)n3)cc2)C1([2H])[2H] [Compound 131, N4-(2,2-dimethyl-3,4-dihydro-3-oxo-2H-pyrido[3,2-b][1,4]oxazin-6-yl)-5-fluoro-N2-[4-(2,2,3,3,5,5,6,6-d8-morpholino)phenyl]-2,4-pyrimidinediamine]	< 100 nM
O=C1Nc2nc(Nc3nc(Nc4ccc(N5CCOCC5)cc4)ncc3F)ccc2OC12CCC2 [Compound 123, 5-Fluoro-N2-(4-morpholinophenyl)-N4-(3′-oxo-3′,4′-dihydrospiro[cyclobutane-1,2′-pyrido[3,2-b][1,4]oxazine]-6-yl)-2,4-pyrimidinediamine]	100 to 500 nM
Cc1cc(Nc2ncc(F)c(Nc3ccc4c(n3)NC(=O)C(C)(C)O4)n2)cnc1N1CCOC(C)(C)C1 [Compound 14, N4-(2,2-dimethyl-3,4-dihydro-3-oxo-2H-pyrido[3,2-b][1,4]oxazin-6-yl)-5-fluoro-N2-[5-methyl-6-(2,2-dimethylmorpholino)pyridin-3-yl]-2,4-pyrimidinediamine]	500 to 1000 nM

same assay, conditions: Mast cell, anti-IgG stimulation, activity of tryptase released upon degranulation

Compound	IC50
CC1(C)Oc2ccc(Nc3nc(Nc4ccc(N5CCOCC5)cc4)ncc3F)nc2N(COP(=O)(O)O)C1=O [Compound 2, N4-(2,2-dimethyl-3,4-dihydro-4-[(dihydrogenphosphonoxy)methyl]-3-oxo-2H-pyrido[3,2-b][1,4]oxazin-6-yl)-5-fluoro-N2-(4-morpholinophenyl)-2,4-pyrimidinediamine]	1000 to 100000 nM

same assay, conditions: anti-IgG stimulation, activity of tryptase released upon degranulation

Compound	IC50
CC1(C)Oc2ccc(Nc3nc(Nc4ccc(N5CCOCC5)c(F)c4)ncc3F)nc2N(COP(=O)(O)O)C1=O [Compound 113, N4-(2,2-dimethyl-3,4-dihydro-4-[(dihydrogenphosphonoxy)methyl]-3-oxo-2H-pyrido[3,2-b][1,4]oxazin-6-yl)-5-fluoro-N2-(3-fluoro-4-morpholinophenyl)-2,4-pyrimidinediamine disodium salt]	1000 to 100000 nM
